Series [1] deals with Mus musculus. Put plainly: Reduction in serum uric acid level in acute hyperuricemia state Kunming mouse model assessed as SUA level at 1 mg/kg, po (reference value: 1037 +/- 106.59 uM). In kind it is functional.
For series [2], the target named is T1, Solute carrier family 2, facilitated glucose transporter member 9 (Mus musculus) (UniProt Q3T9X0).
T1 sequence (whole entry): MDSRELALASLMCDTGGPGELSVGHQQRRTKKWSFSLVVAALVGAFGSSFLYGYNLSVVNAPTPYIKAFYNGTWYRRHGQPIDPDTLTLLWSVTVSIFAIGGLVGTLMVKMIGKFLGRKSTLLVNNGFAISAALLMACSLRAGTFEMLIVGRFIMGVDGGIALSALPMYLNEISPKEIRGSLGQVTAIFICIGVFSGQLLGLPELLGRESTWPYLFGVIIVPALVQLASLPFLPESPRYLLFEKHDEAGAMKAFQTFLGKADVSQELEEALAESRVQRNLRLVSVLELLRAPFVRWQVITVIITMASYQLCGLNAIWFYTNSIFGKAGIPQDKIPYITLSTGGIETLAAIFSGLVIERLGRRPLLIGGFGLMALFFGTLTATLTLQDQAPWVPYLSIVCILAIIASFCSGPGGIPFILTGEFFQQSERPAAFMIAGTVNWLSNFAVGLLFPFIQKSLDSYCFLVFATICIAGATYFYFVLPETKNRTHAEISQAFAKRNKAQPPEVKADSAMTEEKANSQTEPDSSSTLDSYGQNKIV
Put plainly: Inhibition of mouse EGFP-tagged GLUT9 expressed in HEK293T cells assessed as inhibition rate by measuring relative current at 5 uM by patch clamp electrophysiological analysis relative to control. In kind it is cell-based. On the set-up: scale not given: the % may be the effect or the level left. A general note: Patch clamp records ionic current or voltage across a cell membrane.

Series [3] can be described thus: Tmax in Sprague-Dawley rat at 2 mg/kg, po measured upto 24 hrs by LC-MS/MS-AR analysis. It counts as ADME, organism-based. The settings on record: in vivo.
A short description of series [4]: Cmax in Sprague-Dawley rat at 2 mg/kg, iv measured upto 24 hrs by LC-MS/MS-AR analysis. As to conditions: in vivo. It counts as ADME, organism-based.
The next series has as its target Cytochrome P450 2C19 (Homo sapiens, UniProt P33261). The experiment in a line: Inhibition of CYP2C19 in human liver microsomes measured after 40 mins incubation by LC-MS/MS analysis. It counts as ADME, Microsome. Background: Microsomes from liver hold many membrane-bound enzymes, among them those of drug oxidation.
Series [5] in a line: Oral bioavailability in Sprague-Dawley rat at 2 mg/kg measured upto 24 hrs by LC-MS/MS-AR analysis. It counts as ADME, organism-based. The settings on record: in vivo.
In series [6] the test system is Mus musculus. Put plainly: Reduction in serum uric acid level in acute hyperuricemia state Kunming mouse model assessed as SUA level by measuring decrease ratio at 0.25 mg/kg, po relative to control. Set-up: scale not given: the % may be the effect or the level left. In kind it is functional.
Series [7] in a line: Acute toxicity in Kunming mouse assessed as anorexia at 250 to 1000 mg/kg, po administered as single dose monitored for 7 days. The settings on record: in vivo, 168 h, dose 250-1000 mg/kg, time 7 day. It counts as organism-based.
The nature of series [8]: Acute toxicity in Kunming mouse assessed as fatality rate at 1000 mg/kg, po administered as single dose monitored for 7 days. It counts as organism-based. As to conditions: in vivo, po, 1000 mg/kg, 168 h, time 7 day.
A short description of series [9]: Toxicity in Kunming female mouse assessed as pathological changes at 100 mg/kg, po administered every other day for 14 days by H and E staining based assay. As to conditions: in vivo, 336 h, time 14 day. It counts as organism-based.
The species named for series [10] is Mus musculus. The experiment in a line: Reduction in serum uric acid level in chronic hyperuricemia state Kunming mouse model assessed as SUA level (reference value: 660.33 +/- 103.57 uM). It counts as functional.
The next series addresses T2, Cytochrome P450 1A2 (Homo sapiens, UniProt P05177).
T2 sequence (P05177 whole entry): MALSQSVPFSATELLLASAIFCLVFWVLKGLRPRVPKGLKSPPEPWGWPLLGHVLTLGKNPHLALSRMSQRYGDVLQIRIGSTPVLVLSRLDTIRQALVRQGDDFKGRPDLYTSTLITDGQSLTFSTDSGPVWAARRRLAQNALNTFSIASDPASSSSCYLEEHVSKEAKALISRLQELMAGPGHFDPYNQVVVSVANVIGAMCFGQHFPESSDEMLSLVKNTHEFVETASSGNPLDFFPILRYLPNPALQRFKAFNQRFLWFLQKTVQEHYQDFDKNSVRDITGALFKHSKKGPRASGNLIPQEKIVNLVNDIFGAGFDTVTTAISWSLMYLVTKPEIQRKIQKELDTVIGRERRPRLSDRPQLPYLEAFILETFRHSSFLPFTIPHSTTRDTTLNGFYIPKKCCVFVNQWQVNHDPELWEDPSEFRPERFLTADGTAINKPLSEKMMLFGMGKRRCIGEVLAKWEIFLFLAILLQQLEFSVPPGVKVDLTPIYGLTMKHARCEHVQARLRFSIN
Put plainly: Inhibition of CYP1A2 in human liver microsomes measured after 40 mins incubation by LC-MS/MS analysis. It counts as ADME, Microsome.

The next series concerns the target Cytochrome P450 2D6 (Homo sapiens, UniProt P10635). The experiment in a line: Inhibition of CYP2D6 in human liver microsomes measured after 40 mins incubation by LC-MS/MS analysis. In kind it is ADME, Microsome.
Series [11] deals with Mus musculus. Put plainly: Reduction in serum uric acid level in acute hyperuricemia state Kunming mouse model assessed as SUA level at 0.25 mg/kg, po (reference value: 1037 +/- 106.59 uM). In kind it is functional.
The species entered for series [12] is Mus musculus. The experiment in a line: Reduction in serum uric acid level in chronic hyperuricemia state Kunming mouse model assessed as SUA level by measuring decrease ratio relative to control. It counts as functional. Set-up: scale not given: the % may be the effect or the level left.
Series [13] can be described thus: Toxicity in Kunming female mouse assessed as coagulation necrosis of hepatocyte at 100 mg/kg, po administered every other day for 14 days by H and E staining based assay. In kind it is organism-based. The settings on record: 336 h, time 14 day.
Series [14] can be described thus: Cmax in Sprague-Dawley rat at 2 mg/kg, po measured upto 24 hrs by LC-MS/MS-AR analysis. It counts as ADME, organism-based. As to conditions: in vivo.
Series [15] relates to Mus musculus. The experiment in a line: Reduction in serum uric acid level in acute hyperuricemia state Kunming mouse model assessed as SUA level at 0.5 mg/kg, po (reference value: 1037 +/- 106.59 uM). It counts as functional.
Series [16] in a line: Half life in Sprague-Dawley rat at 2 mg/kg, po measured upto 24 hrs by LC-MS/MS-AR analysis. As to conditions: in vivo. In kind it is ADME, organism-based.
Series [17] is described as follows: Half life in Sprague-Dawley rat at 2 mg/kg, iv measured upto 24 hrs by LC-MS/MS-AR analysis. The settings on record: in vivo. It counts as ADME, organism-based.
The nature of series [18]: Toxicity in Kunming female mouse assessed as renal injury at 100 mg/kg, po administered every other day for 14 days by H and E staining based assay. As to conditions: in vivo, 336 h, time 14 day. In kind it is organism-based.
Series [19] is described as follows: Toxicity in Kunming female mouse assessed as balloon like degeneration of liver at 100 mg/kg, po administered every other day for 14 days by H and E staining based assay. In kind it is organism-based. The settings on record: in vivo, 336 h, time 14 day.
Series [20] deals with Xanthine dehydrogenase/oxidase (Bos taurus, UniProt P80457). The experiment in a line: Inhibition of bovine XOD using xanthine as substrate assessed as inhibitory ratio at 10 uM by spectrophotometric analysis relative to control. The settings on record: cattle.
The nature of series [21]: Tmax in Sprague-Dawley rat at 2 mg/kg, iv measured upto 24 hrs by LC-MS/MS-AR analysis. In kind it is ADME, organism-based. As to conditions: in vivo.

Molecules are shown by their SMILES. Where only a bound is given, the exact number is not on record here.

Sequence of Xanthine dehydrogenase/oxidase (P80457 whole entry): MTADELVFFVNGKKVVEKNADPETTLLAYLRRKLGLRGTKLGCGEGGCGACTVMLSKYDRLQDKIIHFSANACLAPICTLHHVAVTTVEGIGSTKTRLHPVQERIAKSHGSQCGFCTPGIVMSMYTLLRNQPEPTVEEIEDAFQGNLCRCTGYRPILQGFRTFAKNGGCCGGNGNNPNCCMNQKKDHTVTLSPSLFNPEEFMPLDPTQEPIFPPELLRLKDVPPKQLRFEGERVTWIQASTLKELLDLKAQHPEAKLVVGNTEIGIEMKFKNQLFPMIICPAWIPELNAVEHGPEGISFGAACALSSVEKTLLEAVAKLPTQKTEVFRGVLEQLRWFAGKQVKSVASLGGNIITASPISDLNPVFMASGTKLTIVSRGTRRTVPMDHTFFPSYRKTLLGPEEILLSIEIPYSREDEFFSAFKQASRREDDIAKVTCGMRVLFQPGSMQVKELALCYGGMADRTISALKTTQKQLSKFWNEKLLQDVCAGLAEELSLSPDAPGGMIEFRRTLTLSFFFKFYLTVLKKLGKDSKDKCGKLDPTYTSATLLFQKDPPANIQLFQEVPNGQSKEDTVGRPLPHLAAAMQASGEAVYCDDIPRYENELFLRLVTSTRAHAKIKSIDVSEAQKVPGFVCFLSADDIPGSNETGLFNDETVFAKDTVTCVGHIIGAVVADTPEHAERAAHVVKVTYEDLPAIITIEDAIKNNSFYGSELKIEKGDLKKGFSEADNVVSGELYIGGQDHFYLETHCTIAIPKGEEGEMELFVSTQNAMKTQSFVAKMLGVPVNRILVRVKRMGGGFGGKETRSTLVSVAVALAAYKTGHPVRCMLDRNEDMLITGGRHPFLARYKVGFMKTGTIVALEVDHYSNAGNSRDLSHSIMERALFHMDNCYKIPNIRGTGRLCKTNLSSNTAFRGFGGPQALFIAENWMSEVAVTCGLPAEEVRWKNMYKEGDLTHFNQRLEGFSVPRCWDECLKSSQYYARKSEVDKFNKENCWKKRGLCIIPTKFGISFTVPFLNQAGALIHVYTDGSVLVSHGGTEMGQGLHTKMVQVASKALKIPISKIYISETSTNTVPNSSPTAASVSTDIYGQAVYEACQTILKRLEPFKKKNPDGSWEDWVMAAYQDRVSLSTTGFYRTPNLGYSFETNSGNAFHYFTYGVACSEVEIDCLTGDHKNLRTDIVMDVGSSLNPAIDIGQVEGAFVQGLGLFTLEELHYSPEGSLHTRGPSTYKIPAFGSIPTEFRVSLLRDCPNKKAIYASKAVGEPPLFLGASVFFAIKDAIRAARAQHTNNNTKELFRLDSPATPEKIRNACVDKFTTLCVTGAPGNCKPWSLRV
Sequence of Cytochrome P450 2C19 (P33261 whole entry): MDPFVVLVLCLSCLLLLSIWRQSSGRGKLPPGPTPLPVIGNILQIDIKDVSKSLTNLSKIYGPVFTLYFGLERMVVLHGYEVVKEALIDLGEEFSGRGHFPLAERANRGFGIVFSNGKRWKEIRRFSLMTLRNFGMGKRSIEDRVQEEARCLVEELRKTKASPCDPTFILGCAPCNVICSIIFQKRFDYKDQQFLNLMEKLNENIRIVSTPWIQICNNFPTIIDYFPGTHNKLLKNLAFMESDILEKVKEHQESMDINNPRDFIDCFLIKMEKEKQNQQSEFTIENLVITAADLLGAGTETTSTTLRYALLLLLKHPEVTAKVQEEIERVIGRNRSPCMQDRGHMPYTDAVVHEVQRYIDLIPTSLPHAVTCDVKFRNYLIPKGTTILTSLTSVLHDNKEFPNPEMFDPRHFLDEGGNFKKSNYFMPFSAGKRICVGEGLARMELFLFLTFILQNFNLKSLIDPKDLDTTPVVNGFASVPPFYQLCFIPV
Sequence of Cytochrome P450 2D6 (P10635 whole entry): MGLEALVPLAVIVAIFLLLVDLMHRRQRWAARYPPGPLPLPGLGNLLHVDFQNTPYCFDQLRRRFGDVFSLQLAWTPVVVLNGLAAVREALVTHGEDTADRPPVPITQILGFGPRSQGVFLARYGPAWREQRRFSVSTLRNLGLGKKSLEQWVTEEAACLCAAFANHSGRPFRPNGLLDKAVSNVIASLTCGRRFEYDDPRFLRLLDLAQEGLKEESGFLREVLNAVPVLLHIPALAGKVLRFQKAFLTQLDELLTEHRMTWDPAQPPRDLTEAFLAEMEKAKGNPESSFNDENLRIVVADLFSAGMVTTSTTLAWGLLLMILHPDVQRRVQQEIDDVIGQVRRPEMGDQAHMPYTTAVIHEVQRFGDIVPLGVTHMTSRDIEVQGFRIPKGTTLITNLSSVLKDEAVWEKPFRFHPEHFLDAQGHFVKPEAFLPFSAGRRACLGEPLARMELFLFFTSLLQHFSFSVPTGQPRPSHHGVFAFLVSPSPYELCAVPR

Broadly, the Tmax is the time from dosing to the highest level. By Cmax is commonly meant the peak of the concentration-time curve. Broadly, the IC50 is the midpoint of a concentration-inhibition curve. A word on the half-life: it is the time needed for the level to fall by half in the phase considered. In general, inhibition refers to the drop in the measured response relative to a control, in per cent. On to `O=C(O)CCCSc1nc(Nc2ccc(C3CC3)c3ccccc23)c2sccc2n1`, for which the Activity with Mus musculus [1] is 208.6 µM; in series [2] it was 69.7%; in the series with Mus musculus [6] it was 9.89%; in series [7] it was “Non-Toxic”; in series [8], “Non-Toxic”; in [9], “Non-Toxic”. For the same compound, the Activity in the series filed under Mus musculus [10] was 241 µM; with Mus musculus [11], 945 µM; in the series listed under Mus musculus [12], 76.33%; in [13] it was “Non-Toxic”; with Mus musculus [15], 418.6 µM; in [18], “Toxic”. Also, the Activity result in [19] is recorded as “Non-Toxic”. For the same compound, the Tmax in series [3] worked out at 15 min; in series [21], 4.98 min. In addition, the Cmax in [4] is 6590 ng/mL; in [14] it was 1270 ng/mL. The IC50 is 5.93 µM against Cytochrome P450 2C19, 9.48 µM against Cytochrome P450 1A2 and greater than 20 µM on Cytochrome P450 2D6. In [5], the F was 20.1%. For the same compound, the half-life was 108 min in series [16] and 96 min in series [17]. Also, in series [20], the inhibition at 10 µM is 11.7%.

(Values after ChEMBL document CHEMBL5528083, “Discovery of a Novel Thienopyrimidine Compound as a Urate Transporter 1 and Glucose Transporter 9 Dual Inhibitor with Improved Efficacy and Favorable Druggability” (J Med Chem, 2024).)
